Biological target: chlorite dismutase (DaCld) (Dechloromonas aromatica (nom. nud.), UniProt Q47CX0)
Experiment: steady-state peroxidase assay
Assay type: biochemical

Chain of chlorite dismutase (DaCld) (Q47CX0 35-282): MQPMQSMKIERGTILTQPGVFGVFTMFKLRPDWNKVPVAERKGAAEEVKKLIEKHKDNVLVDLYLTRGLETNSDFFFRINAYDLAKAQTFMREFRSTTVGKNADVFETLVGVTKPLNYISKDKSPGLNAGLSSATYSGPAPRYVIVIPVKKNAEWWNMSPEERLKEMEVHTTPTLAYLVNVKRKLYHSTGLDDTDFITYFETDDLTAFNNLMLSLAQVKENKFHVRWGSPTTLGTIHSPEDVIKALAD

COc1ccccc1O [guaiacol, 2-methoxyphenol]
kcat (S^-1): 2.8 s⁻¹
